As usually defined, the Ki is a dissociation constant, usually derived from enzyme kinetics or from competition with a known ligand. Higher therefore signals weaker binding.

This test addresses T1, Promotilin (Homo sapiens, UniProt P12872).
T1 sequence (P12872 whole entry): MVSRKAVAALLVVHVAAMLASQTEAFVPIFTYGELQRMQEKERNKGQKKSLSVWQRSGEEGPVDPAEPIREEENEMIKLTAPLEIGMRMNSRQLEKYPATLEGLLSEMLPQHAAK
The compound `CC[C@H]1OC(=O)[C@H](C)[C@@H](O[C@H]2C[C@@](C)(OC)[C@@H](O)[C@H](C)O2)[C@H](C)[C@@H](O[C@@H]2O[C@H](C)C[C@H](N(C)C)[C@H]2O)[C@](C)(O)C[C@@H](C)C(=O)[C@H](C)[C@@H](O)[C@]1(C)O` [CAS_114-07-8] displayed a Ki of 3.09 µM.

In the case of `CC[C@H]1OC(=O)[C@H](C)[C@@H](O[C@H]2C[C@@](C)(OC)[C@@H](O)[C@H](C)O2)[C@H](C)[C@@H](O[C@@H]2O[C@H](C)C[C@H](N(C)C)[C@H]2O)[C@]2(C)CC(C)=C(O2)[C@H](C)[C@@H](O)[C@@H]1C` [EM-B enolether], affinity was put at a Ki of 0.324 µM. With `CC[C@H]1OC(=O)[C@H](C)[C@@H](O[C@H]2C[C@@](C)(OC)[C@@H](O)[C@H](C)O2)[C@H](C)[C@@H](O[C@@H]2O[C@H](C)C[C@H](N(C)C)[C@H]2O)[C@@]2(C)CC(C)=C(O2)[C@H](C)[C@@H](O)[C@]1(C)O` [Erythromycin-A enol ether] the figure was 0.257 µM. Compound `CC[C@H]1OC(=O)[C@H](C)[C@@H](O[C@H]2C[C@@](C)(OC)C[C@H](C)O2)[C@H](C)[C@@H](O[C@@H]2O[C@H](C)C[C@H](N(C)CC)[C@H]2O)[C@@]2(C)CC(C)=C(O2)[C@H](C)[C@@H](O)[C@H]1C` [ABT-229] registered a Ki of 0.0589 µM.

Compound `CC[C@H](C)[C@H](NC(=O)[C@@H]1CCCN1C(=O)[C@@H](NC(=O)[C@@H](N)Cc1ccccc1)C(C)C)C(=O)N[C@@H](Cc1ccccc1)C(=O)N[C@H](C(=O)N[C@@H](Cc1ccc(O)cc1)C(=O)NCC(=O)N[C@@H](CCC(=O)O)C(=O)N[C@@H](CC(C)C)C(=O)N[C@@H](CCC(N)=O)C(=O)N[C@@H](CCCNC(=N)N)C(=O)N[C@@H](CCSC)C(=O)N[C@@H](CCC(N)=O)C(=O)N[C@@H](CCC(=O)O)C(=O)N[C@@H](CCCCN)C(=O)N[C@@H](CCC(=O)O)C(=O)N[C@@H](CCCNC(=N)N)C(=O)N[C@@H](CC(N)=O)C(=O)N[C@@H](CCCCN)C(=O)NCC(=O)N[C@@H](CCC(N)=O)C(=O)O)[C@@H](C)O` [CAS_52906-92-0] had an inhibitory constant (Ki) of 0.00282 µM.

In the case of `C#CCN(C)C1CC(C)OC(OC2C(C)C(OC3CC(C)(OC)C(O)C(C)O3)C(C)C(=O)OC(CC)C(C)(O)C(O)C(C)C(=O)C(C)CC2(C)O)C1O` (stereo unspecified) [ME36], the Ki is more than 10 µM.

The record behind these values is BindingDB's records for doi:10.1124/jpet.104.081497 (Katholieke Universiteit Leuven, 2005).
